The text below walks through data of patent publication US20240201205A1, “METHOD FOR DETECTING NEUROLOGICAL DISEASES USING SUPRAMOLECULE POLYMER THERAPEUTICS” (The Regents of the University of California, priority 2022, published 2024).

Assay [1] deals with Alzheimer's disease tau paired-helical filaments (PHFs). The assay can be described thus: Cryo-EM co-structure of GTP-1 with Alzheimer's disease tau paired-helical filaments. The format is binding, human. Particulars: AD patient filaments. As to the method: Samples were incubated with 20 uM GTP-1 prior to vitrification. […] The micrograph images and their 2D classification reveal well-resolved filaments primarily in the PHF conformation, with crossover distances ranging from 700-800 Å. A minor population of straight filaments (SF) was also identified; however, further structural characterization was not feasible due to limited abundance. […] The PHF structure is comprised of two protofilaments related by two-fold symmetry with a 2.37 Å rise and 179.45° twist, consistent with previously reported structures of PHFs prepared from AD brains (13, 15).
Tau PHF filament purification. Filament purification was based on Fitzpatrick et al., 2017^1. […]
Cryo-EM sample preparation and data collection. […] For the tau PHF, 3 μL of purified filaments mixed with GTP-1 was added to a glow-discharged 200 mesh 1.2/1.3R Au Quantifoil grid for 10 seconds before blotting for 2 seconds, and then a second 3 μL aliquot was added for 3 seconds and blotted for 1 second before being plunge frozen in liquid ethane using a FEI Vitrobot Mark IV (Thermo Fisher Scientific). For the synuclein ligands, 3 μL of purified filaments mixed with compound was added to a 200 mesh 1.2/1.3R Au Quantifoil grid coated with a 2 nm thick layer of carbon, which had not been glow discharged. […]

In assay [2] the target is T1, α-synuclein fibrils isolated from an MSA patient sample (Homo sapiens, UniProt P37840).
T1 construct: fresh-frozen tissue from the cerebellum of patients clinically and neuropathologically diagnosed with MSA; from tissue; host or cells: cerebellum of MSA patients (sarkosyl-insoluble filament preparation)
The assay is described as follows: Cryo-EM co-structures of compounds with α-synuclein fibrils from MSA patient. The assay is classed as binding. Particulars: for binding to α-synuclein fibrils (cryo-EM co-structure): fibrils from MSA patient sample, 20 μM ligand. The method, then: MSA filament purification. Filament purification was based on Schweigenhauser et al., 2020^2. Briefly, 1-2 g of fresh-frozen tissue from the cerebellum of patients clinically and neuropathologically diagnosed with MSA was homogenized at 20 mL/g of tissue in 10 mM Tris-HCl (pH 7.4), 800 mM NaCl, 1 mM EGTA, and 10% sucrose. A final concentration of 1% N-laurosarcosinate (w/v) was added to the homogenates, and these mixtures were incubated at 37° C. for 30 minutes. Homogenates were then centrifuged at 10,000 g for 10 minutes, and the supernatant was kept and then centrifuged at 100,000 g for 20 minutes. The pellets were resuspended at 500 μL/g of frozen tissue in 10 mM Tris-HCl (pH 7.4), 800 mM NaCl, 1 mM EGTA, and 10% sucrose. This was followed by another centrifugation at 3,000 g for 5 minutes. The supernatant was kept and diluted threefold with 50 mM Tris-HCl (pH 7.4), 150 mM NaCl, 10% sucrose, and 2% sarkosyl, followed by another centrifugation at 150,000 g for 1 hour. The final pellet resuspended in 30 mM Tris-HCl (pH 7.4) at a concentration of 100 μL/g frozen tissue.
Cryo-EM sample preparation and data collection. Purified frontal cortex and cerebellum tissue was incubated with 20 μM ligand for 45 minutes prior to freezing. For the tau PHF, 3 μL of purified filaments mixed with GTP-1 was added to a glow-discharged 200 mesh 1.2/1.3R Au Quantifoil grid for 10 seconds before blotting for 2 seconds, and then a second 3 μL aliquot was added for 3 seconds and blotted for 1 second before being plunge frozen in liquid ethane using a FEI Vitrobot Mark IV (Thermo Fisher Scientific). For the synuclein ligands, 3 μL of purified filaments mixed with compound was added to a 200 mesh 1.2/1.3R Au Quantifoil grid coated with a 2 nm thick layer of carbon, which had not been glow discharged. After 30 seconds, grids were blotted for 7.5 seconds at room temperature and 100% humidity. Grids were plunge frozen in liquid ethane using a FEI Vitrobot Mark IV. […] A defocus range of 0.8 to 1.8 μm was used with a total exposure time of 2.024 seconds fractionated into 0.025 seconds subframes. The total dose for each movie was 46 electrons/Å^2. Movies were motion-corrected using MotionCor2^3 in Scipion^4 and were Fourier cropped by a factor of 2 to a final pixel size of 0.834 Å per pixel.
Image processing. All image processing was done in RELION 4^5, and the same workflow was used for each dataset. Dose-weighted summed micrographs were imported into RELION 4. The contrast transfer function was estimated using CTFFIND-4.1^6. Filaments were manually picked and then segments were extracted with a box size of 900 pixels downscaled to 300 pixels. Contaminants and segments contributing to straight filaments were separated out using reference-free 2D class averaging. The remaining segments were re-extracted with a box size of 288 pixels without downscaling. An initial model was generated from a cylinder in RELION. One or more rounds of 3D classification with image alignment were performed, with helical rise and […] parameters fixed to eliminate obvious junk particles. One or more rounds of 3D auto-refinement was run using the best map from 3D classification low-pass filtered to 10 Å, allowing rise and twist parameters to vary. Maps were sharpened using the standard post-processing procedures in RELION.
Model building, refinement, and analysis. Prior to ligand placement, a single strand of a previously solved MSA or tau PHF filament structure^2 (PDB: 6XYQ) was refined against the density using Phenix^7. Refinement of the ligand binding pocket was done in COOT^8. Ligands were placed by hand in the density using Chimera^9. This model was then translated to give a stack spanning 5 rungs.

On to `FCCC1CCN(c2ccn3c(n2)nc2ccccc23)CC1` [GTP-1], for which, in assay [1], the “binding site on tau PHF” value was “bound to a solvent exposed cleft (residues 351-360)”.

For `CNc1nc(=O)n(-c2nc(-c3cccc(C)c3)oc2-c2ccc(Cl)c(F)c2)cc1F` [Compound 83, 1-(5-(4-chloro-3-fluorophenyl)-2-(m-tolyl)oxazol-4-yl)-5-fluoro-4-(methylamino)pyrimidin-2(1H)-one], the “binding to α-synuclein fibrils (cryo-EM co-structure)” value (“binding to α-synuclein fibrils” below) in assay [2] is “bound to fibrils isolated from an MSA patient sample”.

For the compound `O=c1nc2c(ccn2C(F)(F)F)cn1-c1nc(-c2ccnc(C3CC3)n2)oc1-c1ccc(F)cc1` [compound 293], the “binding to α-synuclein fibrils” value in assay [2] is recorded as “bound to fibrils isolated from an MSA patient sample”.

For the compound `CNC(=O)c1ncc2c(-c3ccnc(C(C)(F)F)n3)nn(-c3ccc(Cl)cc3)c2n1` [Compound 22, 1-(4-chlorophenyl)-3-(2-(1,1-difluoroethyl)pyrimidin-4-yl)-N-methyl-1H-pyrazolo[3,4-d]pyrimidine-6-carboxamide], in assay [2] (cryo-EM, residues of SEQ ID NO: 9), the “binding site on α-synuclein” value is “bound to residues 86-99 of α-synuclein”. Also, the “binding to α-synuclein fibrils” value in assay [2] was “bound to fibrils isolated from an MSA patient sample”.
